Experimental data as given in patent US7070803B2 (Nycomed Austria GmbH, priority 2000, dated 2006).

How the values were obtained:
[1] = Plasma pharmacokinetics after oral intake of midodrine (plain tablet / solution); conditions: human, in vivo
Text: Considering the chronic nature of the diseases in question, which requires a long-term treatment as well as the correlation between plasma levels and the incidence and severity of adverse events, the development of a controlled release form is highly desired.

[2] = Absorption of midodrine from the colon (plasma levels); conditions: human, in vivo, tmax of desglymidodrine after colon absorption, midodrine absorbed in the colon
[3] = doses used in clinical practise (10 mg t.i.d.); cited from earlier work

SMILES: COc1ccc(OC)c(C(O)CN)c1 (stereo not drawn) [desglymidodrine, alpha-(aminomethyl)-2,5-dimethoxy-benzenemethanol]
- Tmax [1]: 1 h
- Tmax [2]: ~3 h

SMILES: COc1ccc(OC)c(C(O)CNC(=O)CN)c1 (stereo not drawn) [midodrine, 2-amino-N-[2-(2,5-dimethoxyphenyl)-2-hydroxyethyl]-acetamide]
- effect on standing blood pressure [3]: significantly increase standing blood pressure
